Consider 89 compounds from a melting point compilation (Tetko et al.; mined from patent text by program, amines drawn as free bases though some values may be those of a salt).

Usually melting point stands for the temperature, or range, at which the solid turns liquid.

A value given as a limit tells only on which side of the number the result lay.

On to `CC(=O)Nc1cnc(-c2ccccc2)nc1NCC(=O)N(C)c1ccccc1`, for which the melting point fell in the range of 200 to 201 °C.
Compound `Cc1ncsc1C(=O)Nc1ccc(-n2nc(C(F)(F)F)c(Cl)c2C2CC2)cc1` displayed a melting point of 161 to 164 °C.
Next, `N#Cc1cccc(-c2nnc(-c3cccnc3)o2)c1`: 170 to 174 °C; `CCOC(=O)C1(C)OC2(O)C3CCCN3C(=O)C(Cc3ccccc3)N2C1=O` (centres undefined): 134 to 136 °C.
`CC(O)=C(C(=O)OC(c1ccccc1)c1ccccc1)N1C(=O)C(NC(=O)COc2ccccc2)C1SS(=O)(=O)c1ccc(C)cc1` (centres undefined) came in with a melting point of 150 to 152 °C.
Turning to `CC(C)(C)OC(=O)NCc1[nH]c(C(=O)O)cc(=O)c1O`, the melting point was over 300 °C.
For the compound `CCn1nc2c(N)nc3ccccc3c2c1CC(C)(C)N`, the melting point lay within 234 to 235 °C.
With `CS(=O)(=O)OC[C@H]1CCn2c(cc3ccccc32)C1`, the melting point is 114 to 115 °C.
The compound `O=c1oc(-c2ccccc2)cc(O)c1SCc1cccc(OCc2ccccc2)c1` returned a melting point of 140 to 141 °C.
Take `COc1cc(Nc2c(C#N)cnc3cc4cc(OCCCCl)c(OC)cc4cc23)c(Cl)cc1Cl`: the melting point fell in the range of 220 to 223 °C.
In the case of `O=c1c(C=NO)c(Cl)nc2n1CCS2`, the melting point was in the range of 148 to 150 °C.
On to `CN(C)CCCC1CCCCN1C(=O)N1c2ccccc2C(=O)Nc2cccnc21` (centres undefined), for which the melting point was 142 to 144 °C.
`CCc1nc(S(=O)(=O)Nc2c(Cl)cccc2Cl)nn1-c1ccccc1` displayed a melting point of 185 to 187 °C.
Next, `O=C(CCc1ccc(NC2=NCCN2)cc1)c1ccc(F)cc1`: 190 to 191 °C.
To `CCOC(=O)c1cnc(=O)n2c1sc1cc(OC)ccc12` belongs 231 to 232 °C.
Next, `CC(C)(C)C(=O)c1c[nH]c2ncc(-c3cc(OCCS(C)(=O)=O)cc(N4CCCC4)c3)nc12`: 230 to 232 °C; `CC(=O)ON=C(N)c1cccc(C(=O)N2CCN(C(=O)[C@@H]3CCCN3S(=O)(=O)c3ccc(Cl)c(COc4cccc5c(C)cc(C)nc45)c3Cl)CC2)c1`: 130 °C; `Nc1cc(Cl)c([N+](=O)[O-])cc1OC(=O)c1ccccc1`: 199 to 201 °C.
As for `CCN1CC([N+](=O)[O-])=C(N(C)C)N(Cc2cccnc2)C1`, the melting point is 97 to 98 °C.
As for `C(#Cc1cc2ccccc2s1)c1ccc(-c2ccccc2)s1`, the melting point fell in the range of 185 to 186 °C.
Compound `COC(=O)C=Cc1ccc2c(ccn2S(=O)(=O)c2ccccc2)c1` gave a melting point of 134 to 136 °C.
Next, `CC(=O)OC1C(OC(=O)c2ccccc2)C=C(C)C(=O)CC1(C)C` (centres undefined): 94 to 95 °C; `Cc1oc(-c2ccccc2)nc1COc1ccc(C=NO)cc1`: 192 to 193 °C; `COc1ccc(Oc2ccc3c(c2)C=C(C(=O)O)C(C(F)(F)F)O3)cc1` (centres undefined): 182 to 183 °C.
`CC(C)(C)SC1N(C(C(=O)OCc2ccc([N+](=O)[O-])cc2)C(=O)C(C)(C)C)C(=O)C1(C)C` (centres undefined) showed a melting point of 87.5 to 90.5 °C.
`Clc1ccc(C(Cn2ccnc2)SCCC=Cc2ccccc2)c(Cl)c1` (centres undefined) returned a melting point of 111 to 113 °C.
Compound `N#CCCn1[nH]c(C#N)c(N=Nc2ccc(S(=O)(=O)Cl)cc2)c1=O` came in with a melting point of 178 to 180 °C.
With `O=C(Cc1cccnc1)N1CCC(=C2c3ccc(Cl)cc3CCc3c(Cl)ccnc32)CC1`, the melting point lay in the range of 59.8 to 63.5 °C.
Compound `O=C1O[C@@H]2C[C@@]1(O)C=C(OCc1ccc3sccc3c1)[C@H]2O` had a melting point of 177 to 179 °C.
In turn, `O=C(O)C1CSC(C2CC3C=CC2C3)N1` (mixture of isomers) came in with a melting point of 220 °C.
Consider `CC1(C)NC(=O)C2CNCCN21` (centres undefined), for which the melting point worked out at 174 °C.
For the compound `O=C(c1ccc(F)cc1)N1CCCC(F)(c2nc(-c3ccc[nH]3)no2)C1` (centres undefined), the melting point was in the range of 115 to 118 °C.
With `CN1C(=O)CSC1c1cccnc1` (centres undefined), the melting point fell in the range of 96.5 to 97.5 °C.
`CC(=O)Oc1cc(C(C)C)c(OC(C)=O)c(C(C)C)c1` had a melting point of 73.5 to 75 °C.
To `Cn1cnc2c1C(=O)N1CCN=C1N2Cc1ccc(Cl)cc1` belongs 182 to 184 °C; to `COC(=O)c1ccc(Oc2ccc(NC(=O)c3ccc([N+](=O)[O-])cc3Br)cc2NC(=O)c2ccc([N+](=O)[O-])cc2Br)cc1C(=O)OC`, 138 to 142 °C; to `COC(=O)C(=CN1c2ccc(F)c(F)c2OCC1C)C(=O)OC` (centres undefined), 146 to 147 °C.
`CCOC(=O)c1c(C)nn(-c2ccccc2[N+](=O)[O-])c1C` returned a melting point of 128 to 130 °C.
For `Cc1[nH]ncc1C(=O)O`, the melting point came out at 223 °C.
On to `CCCCCCOc1ccc(C(=O)NCCN(O)C(N)=O)cc1`, for which the melting point was 148 to 151 °C.
`CCSc1cn(C)cc(-c2ccccc2)c1=O` had a melting point of 94 to 95 °C.
As for `O=CNc1ccc(OCCNCC(O)c2ccc(O)cc2)cc1` (centres undefined), the melting point was 164 to 165 °C.
In the case of `CCOC(=O)c1cnn(-c2ccc(OC)cc2)c1Cl`, the melting point was in the range of 100 to 101 °C.
Next, `COC(=O)c1cnn2c(C(F)(F)F)cc(O)nc12`: 149 to 150 °C; `Cc1cccc(Cl)c1NS(=O)(=O)c1nc2sccn2n1`: 91 to 93 °C.
On to `COC[C@@H]1CC[C@H](c2ccc(F)cc2)N1S(=O)(=O)c1ccc(C)cc1` (racemic), for which the melting point is 152 °C.
`CNc1cc(C(F)(F)F)no1`: the melting point was in the range of 48.5 to 50 °C.
For `Cc1c(F)c(F)cc2c(=O)c(C(=O)O)cn(-c3cc(O)c(F)cc3F)c12`, the melting point was 270 to 278 °C.
On to `COc1ccc2c(c1)c(CC(=O)NCC(C)(C)S)c(C)n2C(=O)c1ccc(Cl)cc1`, for which the melting point is 177 to 178 °C.
Compound `CCCC1=C(C#N)C(c2ccccc2Cl)c2c(n[nH]c2-c2cccc3ccccc23)N1` (centres undefined) registered a melting point of 254 °C.
In the case of `Oc1ccnc(Nc2cccc(Cl)c2)n1`, the melting point was in the range of 250 to 252 °C.
Next, `Clc1cccc(Cl)c1CN1CCNc2ncc(I)cc21`: over 200 °C.
For `CCOC(=O)CCc1cccc2c1NC(=O)CC2`, the melting point was 102 to 103 °C.
Consider `Cc1nc2c(/C=C/c3ccccc3)cccn2c1C`, for which the melting point lay within 240 to 255 °C.
In turn, `O=C(O)Cc1c(C(=O)O)c2cc(Oc3ccc(C(F)(F)F)cc3)ccc2n1-c1ccc(N2CCOCC2)cc1` returned a melting point of 257 to 259 °C.
With `CN(C)C(=O)C1=NN(c2ccccc2)C(C(N)=O)=NN1c1ccccc1`, the melting point was 243 to 244 °C.
`O=C(O)COc1ccc([C@H]2c3ccc(O)cc3OC[C@H]2c2ccccc2)cc1` (racemic) displayed a melting point of 178 °C.
In turn, `Cc1nc(N2CCN(Cc3cc(F)cc(F)c3)C2=O)sc1C(N)=O` displayed a melting point of over 200 °C.
To `Cc1ncccc1OCCO` belongs 75 to 80 °C.
On to `CN(C)CCOc1cc(-c2ccccc2)nn1N`, for which the melting point was 80 °C.
In turn, `COc1ccc(C2(CC3CO3)S(=O)(=O)CCCS2(=O)=O)cc1OC` (centres undefined) yielded a melting point of 175 to 176 °C.
`COCCO[C@@H]1c2ccn3c(-c4ccccc4)c(C)nc3c2N[C@H](c2ccccc2)[C@H]1O` gave a melting point of 190 to 192 °C.
Regarding `O=C(CC(=O)C(F)(F)F)c1ccc(-n2cccn2)cc1`, the melting point is 96 °C.
On to `CC(CO)NC1=NS(=O)(=O)c2cnccc2N1` (centres undefined), for which the melting point fell in the range of 213 to 216 °C.
On to `CCCOC(=O)c1sc(C(=O)OCCC)c(OS(=O)(=O)c2ccc(Br)cc2)c1C`, for which the melting point was 73 to 74 °C.
`COc1cc2c(cc1Cl)C(O[Si](C)(C)C)(c1ccccc1Cl)C(=O)N2` (centres undefined) had a melting point of 211 to 212 °C.
Take `CCN(c1ccc([N+](=O)[O-])cc1Cl)S(=O)(=O)c1ccc(C)cc1`: the melting point lay within 118 to 119 °C.
`c1ccc2c(CCc3ccncc3)c[nH]c2c1`: the melting point fell in the range of 154 to 158 °C.
In turn, `O=C(CCNC(=O)C(=Cc1ccccc1)CSC(=O)c1ccccc1)OCc1ccccc1` yielded a melting point of 60 °C.
`CC(C)N(C(C)C)C(C)CN1C(=O)C(=O)c2ccccc21` (centres undefined): the melting point was 111 to 112 °C.
In turn, `Cc1ncn(Nc2cccc(Cl)c2)c1-c1ccccc1` registered a melting point of 218 °C.
To `CCOC(=O)C1CCCn2c(cc3ccccc32)C1` (centres undefined) belongs 69 to 70 °C.
Regarding `OCC1OC(n2cnc3c(NCC(c4ccccc4)c4ccc(Cl)cc4)ncnc32)C(O)C1O` (centres undefined), the melting point was 89 to 95 °C.
Next, `CCC(CC)c1ccc(C#N)c2nc(Nc3c(C)cc(Cl)cc3OC)n(C)c12`: 223 to 225 °C.
For `CCOc1cc(OCC)c2ccccc2c1O`, the melting point lay in the range of 83 to 84 °C.
Compound `CC(Cc1ccccc1)(C(=O)O)S(=O)(=O)c1cccs1` (centres undefined) showed a melting point of 116 to 117 °C.
`CC(C)(O)CNc1c([N+](=O)[O-])cnc2cc(Br)cnc12` returned a melting point of 189 to 190 °C.
As to `NC(=O)CNc1ncccc1N`, the melting point is 153 to 155 °C.
`CCOC(=O)c1ccccc1C(=O)c1cccc(NC(=O)c2ccn3c2CSC3c2cccnc2)c1` (centres undefined) showed a melting point of 150 °C.
`Clc1ccc(C2(Cn3ccnc3)OCC(CCc3ccccc3)O2)c(Cl)c1` (centres undefined) displayed a melting point of 118 °C.
In the case of `CCC(CC)c1ccc(C(F)(F)F)c2[nH]c(=O)n(C)c12`, the melting point is 205 to 206 °C.
Consider `CC(C)NC1=NS(=O)(=O)c2cc(C(C)(C)C)ccc2N1`, for which the melting point lay in the range of 128 to 130 °C.
For `Cc1cc(Oc2c(Cl)cc(C(F)(F)F)cc2Cl)nn1C(=S)NC(C)C`, the melting point lay within 92 to 94 °C.
`CC(=NNc1ccc(-c2ccc(=O)n(C)n2)cc1)c1ccc(O)cc1O` had a melting point of 263 to 268 °C.
`Cn1c(COc2ccc(CC3SC(=O)NC3=O)cc2)nc2ccc(Oc3cccc(NC(=O)Nc4ccccc4C(F)(F)F)c3)cc21` (centres undefined) registered a melting point of 161 to 164 °C.
For `Cc1cncc(CNC(=O)c2sc(N3CCN(CC(C)C)C3=O)nc2C)n1`, the melting point was in the range of 139 to 142 °C.
In turn, `CC(C)(C)OC(=O)CCON=C(C(=O)O)c1ccco1` came in with a melting point of 74.7 to 77.2 °C.
As to `COc1cc(CCC2OC(=O)NC2=O)ccc1OCc1nc(-c2ccccc2)oc1C` (centres undefined), the melting point lay within 194 to 195 °C.
`Fc1ccccc1C1=NCc2cncnc2-c2ccc(Cl)cc21` gave a melting point of 122 to 124 °C.
